# Patent US11256170B2, “Compound, resist composition, and method for forming resist pattern using it” (Mitsubishi Gas Chemical Company, Inc., priority 2015, dated 2022)
# Test: Safe solvent solubility test of compound
# Format: physicochemical
# Details: for Safe solvent CHN (solubility) / Safe solvent PGME (solubility) / Safe solvent PGMEA (solubility): 23° C., ultrasonic waves 30 minutes, visual; for solubility in safe solvents (in words): summary of Table 1
# Method: The solubilities of the compound in CHN, PGME, and PGMEA were evaluated according to the following criteria utilizing the amount of dissolution in each solvent. The amount of dissolution was measured at 23° C. by precisely weighing the compound into a test tube, adding a subject solvent so as to attain a predetermined concentration, applying ultrasonic waves for 30 minutes in an ultrasonic cleaner, and visually observing the subsequent state of the fluid.
# A: 5.0% by mass≤Amount of dissolution
# B: 3.0% by mass≤Amount of dissolution<5.0% by mass
# C: Amount of dissolution<3.0% by mass
SMILES,Safe solvent CHN (solubility),Safe solvent PGME (solubility),Safe solvent PGMEA (solubility),solubility in safe solvents (in words)
CC(C)(C)OC(=O)COc1ccc2c3c(ccc2c1)Oc1ccc2cc(OCC(=O)OC(C)(C)C)ccc2c1C3c1cccc(I)c1 [Compound A-1-MeBOC],A (5.0% by mass≤Amount of dissolution),A (5.0% by mass≤Amount of dissolution),A (5.0% by mass≤Amount of dissolution),good solubility
"CC(C)(C)OC(=O)Oc1ccc2c3c(ccc2c1)Oc1ccc2cc(OC(=O)OC(C)(C)C)ccc2c1C3c1ccc(-c2ccccc2)cc1 [XBisN-1-BOC, reference compound]",A (5.0% by mass≤Amount of dissolution),B (3.0% by mass≤Amount of dissolution<5.0% by mass),A (5.0% by mass≤Amount of dissolution),good solubility
COc1cc(C2c3c(ccc4cc(OC(=O)OC(C)(C)C)ccc34)Oc3ccc4cc(OC(=O)OC(C)(C)C)ccc4c32)cc(I)c1OC(=O)OC(C)(C)C [Compound A-3-BOC],A (5.0% by mass≤Amount of dissolution),A (5.0% by mass≤Amount of dissolution),B (3.0% by mass≤Amount of dissolution<5.0% by mass),good solubility
COc1cc(C2c3c(ccc4cc(OCC(=O)OC(C)(C)C)ccc34)Oc3ccc4cc(OCC(=O)OC(C)(C)C)ccc4c32)cc(I)c1OCC(=O)OC(C)(C)C [Compound A-3-MeBOC],A (5.0% by mass≤Amount of dissolution),A (5.0% by mass≤Amount of dissolution),A (5.0% by mass≤Amount of dissolution),good solubility
CC(C)(C)OC(=O)Oc1ccc2c3c(ccc2c1)Oc1ccc2cc(OC(=O)OC(C)(C)C)ccc2c1C3c1cccc(I)c1 [Compound A-1-BOC],A (5.0% by mass≤Amount of dissolution),A (5.0% by mass≤Amount of dissolution),A (5.0% by mass≤Amount of dissolution),good solubility
CC(C)(C)OC(=O)OCc1ccc2ccc3c(c2c1)C(c1cccc(I)c1)c1c(ccc2ccc(COC(=O)OC(C)(C)C)cc12)O3 [Compound B-1-MeBOC],A (5.0% by mass≤Amount of dissolution),A (5.0% by mass≤Amount of dissolution),A (5.0% by mass≤Amount of dissolution),good solubility
CC(C)(C)OC(=O)Oc1ccc2ccc3c(c2c1)C(c1cccc(I)c1)c1c(ccc2ccc(OC(=O)OC(C)(C)C)cc12)O3 [Compound B-1-BOC],A (5.0% by mass≤Amount of dissolution),A (5.0% by mass≤Amount of dissolution),A (5.0% by mass≤Amount of dissolution),good solubility
